The numbers were not newly measured in US11304902B2, “Pharmaceutical compositions, preparation and uses thereof” (CURADIGM SAS, priority 2014, dated 2022), which cites them from elsewhere.

“Also recorded” adds a separate entry of the source.

Targets include CYP2C9 (Homo sapiens, UniProt P11712); CYP2E1 (Homo sapiens, UniProt P05181); CYP2C19 (Homo sapiens, UniProt P33261).
Settings in all cases: human CYP enzyme
The target of the next series is T1, CYP4F8 (Homo sapiens, UniProt P98187).
T1 sequence (P98187 1-520): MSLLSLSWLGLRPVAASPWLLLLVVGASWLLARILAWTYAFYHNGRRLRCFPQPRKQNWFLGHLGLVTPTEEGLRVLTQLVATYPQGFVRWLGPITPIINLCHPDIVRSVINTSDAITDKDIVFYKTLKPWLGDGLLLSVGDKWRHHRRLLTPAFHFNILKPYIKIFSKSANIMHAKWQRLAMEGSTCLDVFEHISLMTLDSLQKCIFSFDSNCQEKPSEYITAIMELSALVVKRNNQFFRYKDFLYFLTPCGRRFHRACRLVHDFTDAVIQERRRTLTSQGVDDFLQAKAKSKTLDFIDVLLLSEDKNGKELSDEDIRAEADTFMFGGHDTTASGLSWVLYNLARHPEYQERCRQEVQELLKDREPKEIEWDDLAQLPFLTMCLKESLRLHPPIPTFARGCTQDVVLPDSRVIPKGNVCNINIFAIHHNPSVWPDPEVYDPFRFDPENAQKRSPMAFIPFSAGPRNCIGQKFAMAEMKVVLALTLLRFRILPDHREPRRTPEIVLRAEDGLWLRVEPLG

For a further series, the target named is T2, CYP4F12 (Homo sapiens, UniProt Q9HCS2).
T2 sequence (Q9HCS2 1-524): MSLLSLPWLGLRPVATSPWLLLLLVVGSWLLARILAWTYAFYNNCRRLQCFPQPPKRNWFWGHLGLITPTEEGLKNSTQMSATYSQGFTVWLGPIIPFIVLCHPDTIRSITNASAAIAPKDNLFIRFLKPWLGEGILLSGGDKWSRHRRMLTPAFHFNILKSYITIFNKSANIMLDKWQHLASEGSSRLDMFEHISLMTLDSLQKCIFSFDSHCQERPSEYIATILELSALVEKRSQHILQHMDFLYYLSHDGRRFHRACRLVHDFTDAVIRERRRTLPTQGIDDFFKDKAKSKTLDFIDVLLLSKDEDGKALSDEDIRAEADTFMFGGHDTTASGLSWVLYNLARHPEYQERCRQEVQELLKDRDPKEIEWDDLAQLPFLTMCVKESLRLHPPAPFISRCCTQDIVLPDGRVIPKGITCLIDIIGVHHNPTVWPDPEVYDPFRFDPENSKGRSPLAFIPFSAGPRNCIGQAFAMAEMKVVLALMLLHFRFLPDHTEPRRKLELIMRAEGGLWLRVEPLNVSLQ

For a further series, the target named is T3, CYP1B1 (Homo sapiens, UniProt Q16678).
T3 sequence (Q16678 1-543): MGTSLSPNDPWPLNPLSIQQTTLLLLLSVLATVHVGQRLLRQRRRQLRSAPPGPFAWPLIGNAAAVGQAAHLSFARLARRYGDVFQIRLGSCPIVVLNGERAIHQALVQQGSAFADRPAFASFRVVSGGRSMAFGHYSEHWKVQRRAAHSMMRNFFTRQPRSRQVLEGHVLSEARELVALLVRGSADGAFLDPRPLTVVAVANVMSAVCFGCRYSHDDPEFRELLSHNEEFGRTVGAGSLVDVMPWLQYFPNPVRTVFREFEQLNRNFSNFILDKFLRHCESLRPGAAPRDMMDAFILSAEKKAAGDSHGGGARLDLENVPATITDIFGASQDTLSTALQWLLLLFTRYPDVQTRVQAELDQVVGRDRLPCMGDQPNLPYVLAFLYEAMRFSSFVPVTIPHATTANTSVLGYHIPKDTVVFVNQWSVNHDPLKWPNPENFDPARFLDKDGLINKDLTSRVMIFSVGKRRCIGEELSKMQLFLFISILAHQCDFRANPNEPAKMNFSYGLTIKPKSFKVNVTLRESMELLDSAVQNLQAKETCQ

The target in another series is T4, CYP1A1 (Homo sapiens, UniProt P04798).
T4 sequence (P04798 1-512): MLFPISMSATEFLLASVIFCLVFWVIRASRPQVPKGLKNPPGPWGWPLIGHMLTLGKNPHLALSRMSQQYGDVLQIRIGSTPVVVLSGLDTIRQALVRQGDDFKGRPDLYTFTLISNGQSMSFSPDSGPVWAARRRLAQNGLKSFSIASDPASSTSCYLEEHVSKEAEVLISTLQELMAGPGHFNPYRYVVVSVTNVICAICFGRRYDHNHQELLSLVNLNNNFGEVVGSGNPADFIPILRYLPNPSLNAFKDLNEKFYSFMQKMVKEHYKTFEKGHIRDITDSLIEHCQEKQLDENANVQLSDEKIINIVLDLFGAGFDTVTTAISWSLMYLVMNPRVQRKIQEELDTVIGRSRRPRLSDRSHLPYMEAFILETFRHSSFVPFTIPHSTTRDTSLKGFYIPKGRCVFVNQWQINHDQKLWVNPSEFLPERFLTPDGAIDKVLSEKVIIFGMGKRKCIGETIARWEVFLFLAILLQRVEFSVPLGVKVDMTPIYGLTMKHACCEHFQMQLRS

CYP2C9, sequence (P11712 whole entry): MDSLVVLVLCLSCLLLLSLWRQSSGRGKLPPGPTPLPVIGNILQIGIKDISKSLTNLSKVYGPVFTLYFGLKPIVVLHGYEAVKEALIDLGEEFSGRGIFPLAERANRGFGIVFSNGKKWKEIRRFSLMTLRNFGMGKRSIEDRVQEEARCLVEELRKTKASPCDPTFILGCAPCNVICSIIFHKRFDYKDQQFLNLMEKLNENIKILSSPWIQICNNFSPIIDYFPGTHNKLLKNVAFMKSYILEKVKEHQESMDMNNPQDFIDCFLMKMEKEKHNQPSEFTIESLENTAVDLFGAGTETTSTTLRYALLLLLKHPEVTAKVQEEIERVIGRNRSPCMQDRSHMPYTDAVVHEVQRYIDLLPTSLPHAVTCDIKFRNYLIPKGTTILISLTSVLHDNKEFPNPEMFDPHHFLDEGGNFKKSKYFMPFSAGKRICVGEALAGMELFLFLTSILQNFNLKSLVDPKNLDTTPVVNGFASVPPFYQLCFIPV
CYP2E1, sequence (P05181 whole entry): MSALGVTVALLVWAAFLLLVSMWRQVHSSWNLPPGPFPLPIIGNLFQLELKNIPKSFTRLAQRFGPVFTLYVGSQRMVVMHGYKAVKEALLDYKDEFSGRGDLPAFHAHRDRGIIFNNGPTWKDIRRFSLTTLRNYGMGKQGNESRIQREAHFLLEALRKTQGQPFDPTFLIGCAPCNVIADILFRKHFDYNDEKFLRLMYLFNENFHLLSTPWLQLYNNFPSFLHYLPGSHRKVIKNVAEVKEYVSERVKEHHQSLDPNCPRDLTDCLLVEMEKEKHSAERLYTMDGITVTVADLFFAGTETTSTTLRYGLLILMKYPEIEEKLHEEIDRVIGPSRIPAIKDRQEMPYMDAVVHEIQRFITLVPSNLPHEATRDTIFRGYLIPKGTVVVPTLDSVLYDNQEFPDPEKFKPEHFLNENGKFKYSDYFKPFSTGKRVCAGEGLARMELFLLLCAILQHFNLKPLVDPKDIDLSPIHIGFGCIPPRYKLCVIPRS
CYP2C19, sequence (P33261 whole entry): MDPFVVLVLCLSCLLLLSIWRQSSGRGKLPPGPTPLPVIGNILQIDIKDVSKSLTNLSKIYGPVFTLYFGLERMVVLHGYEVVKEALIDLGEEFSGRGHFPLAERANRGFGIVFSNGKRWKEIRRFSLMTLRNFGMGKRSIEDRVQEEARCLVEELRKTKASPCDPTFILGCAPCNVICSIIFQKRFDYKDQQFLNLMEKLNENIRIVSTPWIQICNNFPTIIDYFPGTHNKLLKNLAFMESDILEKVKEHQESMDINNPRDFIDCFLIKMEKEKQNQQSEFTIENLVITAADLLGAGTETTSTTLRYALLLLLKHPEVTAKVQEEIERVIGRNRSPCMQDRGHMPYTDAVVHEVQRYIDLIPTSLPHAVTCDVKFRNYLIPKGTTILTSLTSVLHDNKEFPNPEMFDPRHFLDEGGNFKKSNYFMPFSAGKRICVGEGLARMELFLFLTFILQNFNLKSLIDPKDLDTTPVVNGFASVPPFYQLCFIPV

Regarding `CCCCC/C=C\C/C=C\C/C=C\C/C=C\CCCC(=O)O` [Arachidonic acid, arachidonic acid], the “role towards CYP4F8 (substrate / inhibitor / inducer)” value on CYP4F8 is listed as “Substrate”. Besides, on CYP4F12, the “role towards CYP4F12 (substrate / inhibitor / inducer)” value is “Substrate”. The “role towards CYP2C9 (substrate / inhibitor / inducer)” value on CYP2C9 is recorded as “Inhibitor; also recorded: Substrate”. Further, the “role towards CYP1B1 (substrate / inhibitor / inducer)” value on CYP1B1 is listed as “Inhibitor”. In addition, the “role towards CYP1A1 (substrate / inhibitor / inducer)” value on CYP1A1 is on record as “Inhibitor”. Besides, the “role towards CYP2E1 (substrate / inhibitor / inducer)” value on CYP2E1 is recorded as “Inhibitor”. On CYP2C19, the “role towards CYP2C19 (substrate / inhibitor / inducer)” value was “Substrate”.
